Test results taken from patent US11590108B2, “Pharmaceutical compositions for combination therapy” (Genfit, priority 2017, dated 2023).
Like-named read-outs stand apart in the source and are kept apart here.

Experiments:
[1] = cited from earlier work
TGFβ1-induced hHSC = assay: α-SMA ELISA in TGFβ1-activated human primary hepatic stellate cells (in vitro model of hepatic fibrogenesis); format: cell-based
Experimental: Serum-deprived HSC were preincubated for 1 hour with Elafibranor (A), Cenicriviroc (B), or Bezafibrate (PPAR pan α/γ/δ) before the activation with the profibrogenic cytokine TGFβ1 (1 ng/ml).
After 48 hours of incubation, the expression of α-SMA was measured by ELISA.
The obtained values were transformed into percentage inhibition over TGFβ1 control. Data are presented as mean (quadruplicates)±standard deviation (SD). Statistical analyses were performed by one-way ANOVA followed by Bonferroni post-hoc tests, using Sigma Plot 11.0 software. [*: p<0.05; **: p<0.01; ***: p<0.001 (comparison versus TGFβ1 1 ng/mL group)]. The curve fitting and the calculation of half maximal inhibitory concentration (IC50) were performed with XLFit software 5.3.1.3.
The human primary hepatic stellate cells (hHSC; Innoprot) were cultured in STeCM medium (ScienCell cat #5301) that was supplemented with 2% fetal bovine serum (FBS, ScienCell cat #0010), 1% penicillin/streptomycin (ScienCell cat #0503) and stellate cell growth supplement (SteCGS; ScienCell cat #5352). Cell-culture flasks were coated with Poly-L Lysine (Sigma cat #P4707) for a better adherence.
For these experiments, a checkerboard matrix was generated. […]
The level of α-SMA was measured using a Sandwich ELISA. […]

CDFF-fed mice = assay: Chronic CDFF diet fibrosing NASH mouse model (8 weeks); format: in vivo, C57Bl/6J mice; details: Elafibranor 3 mg/kg/day, CVC 10 mg/kg/day or both
Experimental: The preventive effects of Elafibranor alone, CVC alone and their combination were assessed in a fibrosing NASH model of mice fed a CDAA+2% cholesterol+30% Milk fat diet and High Fructose Corn Syrup 55 (55% fructose/45% glucose for a final concentration of 42 g/L) in drinking water (Mells et al J Nutr Biochem 2015). 5-6 weeks old male C57Bl/6J mice were fed a control (CSAA) diet (n=4), CDFF diet (n=12), or CDFF diet supplemented with Elafibranor 3 mg/kg/day, CVC 10 mg/kg/day or combined drugs (Elafibranor 3 mg/kg/day combined to CVC 10 mg/kg/day) (n=8 per group) for 8 weeks.
The body weight, the food and water intake were monitored twice per week. On the last day of treatment, plasma samples were obtained from retro-orbital blood sampling and mice were sacrificed after a 6 h-fasting period. The liver was rapidly excised for biochemical and histological analyses. All animal procedures were performed according to standard protocols and in accordance with the standard recommendations for the proper care and use of laboratory animals.
A technician blinded to the source of each liver specimen performed histological examinations. Virtual slides were generated using the Pannoramic 250 scanner from 3D Histech. For each animal, a score summarizing the main histological lesions of NASH was attributed according to the NASH Clinical Research Network (Kleiner 2005, Brunt 1999). Briefly, steatosis, lobular inflammation and hepatocyte ballooning were scored. The NAFLD Activity Score (NAS score) was established for each individual as the unweighted sum of the steatosis (0-3), lobular inflammation (0-3) and the ballooning (0-2) injury grading.
Alanine aminotransferase (ALT) and aspartate aminotransferase (AST) concentrations were measured in plasma using the Randox kit for Daytona automate (Randox cat #AL 3801 and AS 3804, respectively). Plasma cytokeratin 18-M30, a surrogate marker of apoptosis, was measured using the Mouse Cytokeratin 18-M30 ELISA Kit (CUSABIO cat #CSB-E14265m), according to the manufacturer's recommendations. […]
Quantitative PCR was then carried out using the CFX96 Touch™ Real-Time PCR Detection System (Biorad). […]
Expression levels were normalized using the expression of GAPDH gene as a housekeeping gene of reference in samples. […] Expression levels were determined using the standard curve equation for both the housekeeping gene and the target gene (taking into account the specific PCR efficiency of each target gene).
To achieve this aim, NASH was induced by feeding C57Bl/6J mice with a choline-deficient L-amino-acid-defined-diet supplemented with 2% cholesterol and 30% milk fat, and high fructose corn syrup in drinking water (CDFF diet). […] NASH development was evaluated by histology, liver function tests, and biochemical and molecular analyses.

NASH with liver fibrosis = details: cited from earlier work
[2] = CVC 150 mg orally once daily, one year

SMILES	solubility ([1]; 99.5% ethanol)	solubility ([1]; acetonitrile, 1-octanol, tetrahydrofuran)	solubility ([1]; aqueous solution at pH 3)	solubility ([1]; aqueous solution from pH 1 to 2)	solubility ([1]; aqueous solution from pH 4 to 13 and in water)	solubility ([1]; ethyl acetate and diethylether)	solubility ([1]; glacial acetic acid, methanol, benzyl alcohol, dimethylsulfoxide, N,N-dimethylformamide)	solubility ([1]; pyridine and acetic anhydride)	antifibrotic activity (α-SMA) (TGFβ1-induced hHSC; 5 μM alone (FIG. 2C))	antifibrotic effect as single agent (α-SMA) (TGFβ1-induced hHSC; hHSC, TGFβ1 1 ng/ml, 48 h, all doses (FIG. 1B, 1C))	NAS score (disease activity) (CDFF-fed mice; 8 weeks (FIG. 4A))	plasma CK18 concentration (CDFF-fed mice; 8 weeks (FIG. 4B))	plasma AST concentration (CDFF-fed mice; 8 weeks (FIG. 4C))	hepatic expression of genes related to inflammation, tissue remodeling and fibrogenesis (CDFF-fed mice; 8 weeks, qPCR (FIG. 5))	fibrosis as compared to placebo (NASH with liver fibrosis; [2])	primary outcome (minimum 2-point improvement in NAS with at least 1-point reduction in lobular inflammation or hepatocellular ballooning) (NASH with liver fibrosis; [2])	efficacy on NASH-induced fibrosis (NASH with liver fibrosis; recent phase 2B study)
CCCCOCCOc1ccc(-c2ccc3c(c2)C=C(C(=O)Nc2ccc([S@@+]([O-])Cc4cncn4CCC)cc2)CCCN3CC(C)C)cc1.CS(=O)(=O)O [CVC mesylate, (S)-8-[4-(2-Butoxyethoxy)phenyl]-1-isobutyl-N-[4-[[(1-propyl-1H-imidazol-5-yl)methyl]sulfinyl]phenyl]-1,2,3,4-tetrahydro-1-benzazocine-5-carboxamide monomethanesulfonoate]	sparingly soluble	slightly soluble	sparingly soluble	freely soluble	practically insoluble	practically insoluble	freely soluble	soluble									
CCCCOCCOc1ccc(-c2ccc3c(c2)/C=C(/C(=O)Nc2ccc([S@@+]([O-])Cc4cncn4CCC)cc2)CCCN3CC(C)C)cc1 [CVC, (S,E)-8-(4-(2-Butoxyethoxy)phenyl)-1-(2-methylpropyl)-N-(4-(((1-propyl-1H-imidazol-5-yl)methyl)sulfinyl)phenyl)-1,2,3,4-tetrahydrobenzo[b]azocine-5-carboxamide]									does not show any antifibrotic activity	did not show a significant effect	no effect	no effect	no effect	no effect	decrease of fibrosis in certain proportion of patients	not met	shown efficacy
